How the values were obtained:
[1] = system: B6 mouse; details: 15 days after PTU treatment
[2] = system: C57B1/6 mice
Protocol: Cardiac injury. Myocardial injury is cryogenically initiated, employing a technique adapted from Taylor et al. (1998) (ref 28). Adult MRL and C57B1/6 mice (6-8 weeks of age) were anaesthetized using an intraperitoneal injection of ketamine (100 mg/kg) and xylazine (15 mg/kg). A 2 mm diameter blunt probe cooled to the temperature of liquid Nitrogen is then introduced, trans-diaphragmatically, to the right ventricular surface of the heart.
Access to the diaphragm was accomplished by a 6-8 mm incision made through the skin on the ventral surface of the abdomen below the ribcage approximately 5 mm posterior to—and approximately 5 mm to the left of the ventral midline—the sternum. The underlying musculature was incised to an equivalent extent. The diaphragm was exposed using forceps to retract the medial lobe of the liver. The right ventricular surface of the heart was thus presented directly adjacent to, and clearly visible through, the diaphragm. Injury to the heart was achieved by holding the cryoprobe in contact with the diaphragmatic surface for 10 seconds and repeated using a second, identical cryoprobe. The abdominal musculature was then repositioned and closed using 6-0 […] suture. The 6-0 nylon suture was also used for skin closure.
Histology Frozen sections: Hearts were removed and frozen in isopentane cooled to −160° C. in liquid nitrogen. Eight micron-thick sections were cut for immunohistochemistry and histology. Fixed sections: Hearts were fixed in Prefer Fixative (Anatheh Ltd.). Paraffin-embedded sections cut to a thickness of 5 microns were used for both histology and immunohistochemistry.
We also treated nonhealer C57B1/6 mice with PTU, which is known to inhibit thyroid activity.

[3] = system: MRL mice; assay: Cryo-injury of the heart in MRL (healer) mice given slow-release T3 pellets; type: in vivo, mouse; details: pellets containing 0.01 mg T3, slow release (21 days), 0.0005 mg/day, injured one day later
Protocol: The underlying musculature was incised to an equivalent extent.
To determine whether administering T3 to MRL mice inhibits healing of ear and heart wounds, we placed pellets containing 0.01 mg of T3 in a slow release formulation (21 days) in MRL mice. Via these pellets, the mice received 0.0005 mg/day of T3 . Mice were injured one day later.

[4] = wounded C57B1/6 mice pretreated with PTU

SMILES	Ear hole size versus untreated B6 ear holes [1]	Proliferation in ear hole wound [1]	Heart wound healing and epithelial growth at larger concentrations ([2]; C57B1/6 mice, PTU 2 or 3 mg/day)	Epithelial layer versus untreated C57B1/6 mice [2, 4]	Growth of myocardium versus untreated C57B1/6 mice [2, 4]	Healing of heart wound [3]	Heart wound scarring / fibrotic tissue ([3]; by day 15)
CCCc1cc(=O)[nH]c(=S)[nH]1 [PTU, propylthiouracil]	smaller	impressive degree of epithelial proliferation, as well as muscle and adipocyte proliferation	better healing and greater epithelial growth	more intact epithelial layer	significantly greater growth of myocardium	–	–
N[C@@H](Cc1cc(I)c(Oc2ccc(O)c(I)c2)c(I)c1)C(=O)O [T3]	–	–	–	–	–	never healed	severely scarred, with a large degree of fibrotic tissue

— US6852706B1, “Methods and compositions for healing heart wounds” (The Wistar Institute, priority 2000, dated 2005)
